In the OligoGym collection:
Oligonucleotides are written 5' to 3', each unit as a sugar letter and its base; * is a phosphorothioate linkage, no mark a phosphodiester; rarer units and linkages stand in square brackets, end groups in braces. Plain capitals give the bases only. d = 2'-deoxy (DNA); r = 2'-OH (RNA)

target: DENND5A; experiment: reporter assay of Huesken 2005; conditions: siRNA
Note: test concentration or dose not given here.

First: sense rUrUrGrCrArUrUrCrCrUrArCrGrArGrCrUrUrCdTdT / antisense rGrArArGrCrUrCrGrUrArGrGrArArUrGrCrArAdAdG
Second: sense rArGrCrUrGrArArGrArGrGrCrUrGrCrGrGrGrCdTdT / antisense rGrCrCrCrGrCrArGrCrCrUrCrUrUrCrArGrCrUdTdG
The normalised inhibition (eCFP-eYFP dual reporter) of the first is lower: 50.8% for the first, 54.9% for the second.

Going from “sense rGrGrUrGrCrCrGrCrUrCrCrCrArCrCrUrCrCrUdTdT / antisense rArGrGrArGrGrUrGrGrGrArGrCrGrGrCrArCrCdTdC” to “sense rUrGrCrCrGrCrUrCrCrCrArCrCrUrCrCrUrGrGdTdT / antisense rCrCrArGrGrArGrGrUrGrGrGrArGrCrGrGrCrAdCdC”, the normalised inhibition (eCFP-eYFP dual reporter) falls from 39% to 24.9%.

Going from “sense rGrArCrUrGrArArGrGrArGrArArArArUrUrUrUdTdT / antisense rArArArArUrUrUrUrCrUrCrCrUrUrCrArGrUrCdGdT” to “sense rArUrGrGrCrUrGrGrUrGrGrArGrUrArUrGrUrGdTdT / antisense rCrArCrArUrArCrUrCrCrArCrCrArGrCrCrArUdTdT”, the normalised inhibition (eCFP-eYFP dual reporter) falls from 90.8% to 71.9%.

First: sense rArGrArCrCrCrArGrGrCrUrGrArUrCrCrCrArGdTdT / antisense rCrUrGrGrGrArUrCrArGrCrCrUrGrGrGrUrCrUdTdG
Second: sense rUrGrCrCrGrCrArArUrArArGrArCrCrArArGrAdTdT / antisense rUrCrUrUrGrGrUrCrUrUrArUrUrGrCrGrGrCrAdTdT
The normalised inhibition (eCFP-eYFP dual reporter) of the first is higher: 75.1% for the first, 69.3% for the second.

First: sense rArUrUrGrArCrCrArUrArCrUrGrCrArArUrUrCdTdT / antisense rGrArArUrUrGrCrArGrUrArUrGrGrUrCrArArUdTdT
Second: sense rCrArGrGrGrArGrCrArArArUrGrCrArArArArCdTdT / antisense rGrUrUrUrUrGrCrArUrUrUrGrCrUrCrCrCrUrGdTdT
The normalised inhibition (eCFP-eYFP dual reporter) of the first is lower: 45.9% for the first, 67.9% for the second.

Going from “sense rGrArArUrGrGrGrArArCrArUrUrGrCrUrGrGrCdTdT / antisense rGrCrCrArGrCrArArUrGrUrUrCrCrCrArUrUrCdCdT” to “sense rArArUrGrGrCrArUrUrGrUrGrArArGrCrArCrUdTdT / antisense rArGrUrGrCrUrUrCrArCrArArUrGrCrCrArUrUdGdA”, the normalised inhibition (eCFP-eYFP dual reporter) rises from 45.3% to 60.5%.

Going from “sense rGrGrGrArGrCrCrArGrArGrArUrCrArCrCrUrCdTdT / antisense rGrArGrGrUrGrArUrCrUrCrUrGrGrCrUrCrCrCdAdA” to “sense rCrCrArUrGrCrCrUrUrUrArUrUrArUrCrArCrAdTdT / antisense rUrGrUrGrArUrArArUrArArArGrGrCrArUrGrGdAdA”, the normalised inhibition (eCFP-eYFP dual reporter) rises from 49.7% to 72.5%.

Going from “sense rUrUrCrArUrUrGrArCrArArCrArArArArUrArAdTdT / antisense rUrUrArUrUrUrUrGrUrUrGrUrCrArArUrGrArAdAdG” to “sense rCrUrUrUrCrArArUrGrCrCrGrUrCrGrArUrUrAdTdT / antisense rUrArArUrCrGrArCrGrGrCrArUrUrGrArArArGdAdC”, the normalised inhibition (eCFP-eYFP dual reporter) falls from 97.8% to 76.8%.

Compared with “sense rCrArCrArUrGrCrArCrArArUrGrCrUrGrArGrUdTdT / antisense rArCrUrCrArGrCrArUrUrGrUrGrCrArUrGrUrGdGdT”, “sense rGrGrCrCrArGrCrCrArGrCrArArCrArArGrUrGdTdT / antisense rCrArCrUrUrGrUrUrGrCrUrGrGrCrUrGrGrCrCdCdA” is higher in normalised inhibition (eCFP-eYFP dual reporter): 69.6% for the first, 73.7% for the second.

First: sense rCrArGrCrGrCrUrUrCrArArCrUrCrCrUrArUrGdTdT / antisense rCrArUrArGrGrArGrUrUrGrArArGrCrGrCrUrGdCdA
Second: sense rArCrGrCrUrGrUrUrGrCrUrCrUrGrUrGrGrArGdTdT / antisense rCrUrCrCrArCrArGrArGrCrArArCrArGrCrGrUdCdA
The normalised inhibition (eCFP-eYFP dual reporter) of the first is lower: 49.9% for the first, 60.7% for the second.

Going from “sense rCrUrGrGrArUrUrGrCrCrCrUrGrCrUrGrGrCrUdTdT / antisense rArGrCrCrArGrCrArGrGrGrCrArArUrCrCrArGdTdG” to “sense rCrCrUrCrUrArCrCrArCrArUrGrCrArCrArArUdTdT / antisense rArUrUrGrUrGrCrArUrGrUrGrGrUrArGrArGrGdGdT”, the normalised inhibition (eCFP-eYFP dual reporter) rises from 63.7% to 68.3%.

Compared with “sense rUrGrArUrCrUrCrCrUrGrGrArArArGrGrArUrCdTdT / antisense rGrArUrCrCrUrUrUrCrCrArGrGrArGrArUrCrAdCdA”, “sense rArArCrUrGrGrGrGrUrGrArGrCrCrUrGrGrArAdTdT / antisense rUrUrCrCrArGrGrCrUrCrArCrCrCrCrArGrUrUdCdT” is higher in normalised inhibition (eCFP-eYFP dual reporter): 44.1% for the first, 58.4% for the second.

Going from “sense rArGrCrCrCrCrArArUrUrCrCrArUrGrCrCrUrUdTdT / antisense rArArGrGrCrArUrGrGrArArUrUrGrGrGrGrCrUdCdC” to “sense rArGrArGrGrArArUrGrGrGrArArCrArUrUrGrCdTdT / antisense rGrCrArArUrGrUrUrCrCrCrArUrUrCrCrUrCrUdTdG”, the normalised inhibition (eCFP-eYFP dual reporter) falls from 57.6% to 53.6%.

Compared with “sense rUrGrArArUrGrUrUrCrGrGrArCrArCrCrUrArCdTdT / antisense rGrUrArGrGrUrGrUrCrCrGrArArCrArUrUrCrAdAdC”, “sense rCrArCrCrUrArCrUrCrUrCrCrGrUrArCrArUrCdTdT / antisense rGrArUrGrUrArCrGrGrArGrArGrUrArGrGrUrGdTdC” is higher in normalised inhibition (eCFP-eYFP dual reporter): 49% for the first, 54.7% for the second.

Compared with “sense rGrArGrGrArUrGrGrCrUrCrUrCrGrGrArCrArUdTdT / antisense rArUrGrUrCrCrGrArGrArGrCrCrArUrCrCrUrCdCdC”, “sense rGrGrArGrCrArArCrUrCrCrArCrCrArGrGrCrAdTdT / antisense rUrGrCrCrUrGrGrUrGrGrArGrUrUrGrCrUrCrCdAdG” is higher in normalised inhibition (eCFP-eYFP dual reporter): 55.9% for the first, 62.1% for the second.

Compared with “sense rArUrUrGrCrCrArGrCrCrUrUrUrGrUrGrArUrCdTdT / antisense rGrArUrCrArCrArArArGrGrCrUrGrGrCrArArUdCdA”, “sense rUrCrUrCrCrUrGrCrArUrUrUrCrUrUrArGrArUdTdT / antisense rArUrCrUrArArGrArArArUrGrCrArGrGrArGrAdGdA” is higher in normalised inhibition (eCFP-eYFP dual reporter): 48.5% for the first, 51.3% for the second.

Compared with “sense rUrUrCrCrUrUrGrArUrUrCrGrUrGrUrGrCrUrGdTdT / antisense rCrArGrCrArCrArCrGrArArUrCrArArGrGrArAdTdT”, “sense rCrArUrUrCrArGrArUrCrCrGrGrGrArArGrUrUdTdT / antisense rArArCrUrUrCrCrCrGrGrArUrCrUrGrArArUrGdTdT” is higher in normalised inhibition (eCFP-eYFP dual reporter): 22.1% for the first, 74.7% for the second.

First: sense rGrArUrGrGrUrGrArArGrArCrArCrUrCrCrUrGdTdT / antisense rCrArGrGrArGrUrGrUrCrUrUrCrArCrCrArUrCdCdT
Second: sense rCrArGrUrUrCrCrCrCrArArCrArArArUrUrGrGdTdT / antisense rCrCrArArUrUrUrGrUrUrGrGrGrGrArArCrUrGdTdG
The normalised inhibition (eCFP-eYFP dual reporter) of the first is higher: 82.9% for the first, 67.9% for the second.

“sense rArCrUrGrGrGrGrUrGrArGrCrCrUrGrGrArArAdTdT / antisense rUrUrUrCrCrArGrGrCrUrCrArCrCrCrCrArGrUdTdC” was tested, and the normalised inhibition (eCFP-eYFP dual reporter) was 37.1%.
